Here are results for 26 compounds from patent publication US9556193B2, “Benzimidazole hexahydrofuro[3,2-b]furan derivatives” (Merck Sharp & Dohme Corp., priority 2012, dated 2017).

SMILES strings stand for the structures.

The test system of test [1] is ob/ob and db/db mice. Conditions: following 8 weeks of administration; cited from earlier work.
Test [2] has as its target T1, recombinant human AMPK complex 1 (containing α1β1γ1) (Homo sapiens, UniProt Q13131+Q9Y478).
T1 construct: made in house; host or cells: Spodoptera frugiperda Sf21 cells, baculovirus, triple infection (one virus per subunit)
The experiment in a line: In vitro AMPK activation assay (AMPKSAMSF), complex 1. The test is classed as biochemical. Particulars: recombinant human AMPK complex 1 (α1β1γ1); for % Maximum AMP Activation of human AMPK Complex 1: 10-point titration expressed as % maximum AMP activation; for EC50: inflection point reflecting 50% of the maximum activation. On the procedure: (§1) The recombinant human AMPK complex 1 (containing α1β1γ1) or AMPK complex 7 (containing α2β1γ1) was obtained from baculovirus expression system. Recombinant viruses were generated by cotransfection of AMPK/pBacPak9 clones with Baculogold baculovirus DNA (Pharmingen) in spodoptera frugiperda 21 cells according to the manufacturer's instructions. Each round of virus amplification was performed for 5 days in Grace's medium containing 10% serum. Virus that had been subjected to three rounds of amplification was used for all protein production procedures. To express the AMPK complex, sf21 cells were adapted to serum free medium (SF900 II, Invitrogen) by sequential dilution from serum containing stocks into SF900II medium and maintained in shaker flasks at 90 rpm at 27° C. The recombinant AMPK enzyme complex was produced by triple infection, one recombinant virus for each of the subunits, in sf21 cells under serum free conditions. Cells were infected in log phase, 1×10^6 cells/ml, at a multiplicity of infection of ˜5. Cells were harvested by centrifugation at 10,000×g for 15 minutes after 72 hours of infection with viruses. The insect cell pellet from 2 liters of culture was resuspended in 50 ml lysis buffer (20 mM Tris-HCl, 50 mM NaCl, 50 mM NaF, 30 mM Na PPi, 0.25 M sucrose, 10 mM ZnCl2, 2 mM DTT, 0.4 mg/ml digitonin) and subjected to two cycles of freeze-thaw lysis in a dry-ice ethanol bath. Insoluble material was removed by centrifugation at 10,000×g and the supernatant was fractionated with use of polyethylene glycol (PEG). The protein fraction precipitating between 2.5 and 6% PEG was used for further purification using a Blue-Sepharose step (Zhou et al, J. Clin. Invest. 108, 1167-1174, 2001).
(§2) The in vitro AMPK activation assay is performed in a volume of 30 μl in a 384-well plate. Enzyme reactions were assembled in the microtiter plate by adding 15 μl of 2× enzyme in assay buffer (20 mM HEPES, pH 7.3, 5 mM MgCl2, 3 mM DTT, 0.01% Brij 35 and CamK Kinase, to activate AMPK) to wells which contained either DMSO or compound. The reaction was initiated with the addition of 15 μl 2× substrate mixture containing 200 μM ATP, and 3.0 μM fluorescently labeled SAMS (5-FAM-HMRSAMSGLHLVKRR-COOH) in assay buffer. After 45-minute incubation at 25° C., the reaction was stopped by the addition of 70 μl stop buffer (100 mM HEPES, pH 7.3, 40 mM EDTA, 0.015% Brij 35). Phosphorylated 5-FAM SAMS product is assessed using a Caliper EZ Reader LabChip microfluidics reader. Product conversion is determined by calculating the peak heights of the substrate and product and reporting the product/(product+substrate) peak ratio. The 10-point titration data were expressed as % maximum AMP activation. The results were plotted using 4 parameter fit and the inflection point reflecting 50% of the maximum activation was reported as the EC50.

For test [3], the target named is T2, recombinant human AMPK complex 7 (containing α2β1γ1) (Homo sapiens, UniProt P54646+Q9Y478).
T2 construct: made in house; host or cells: Spodoptera frugiperda Sf21 cells, baculovirus, triple infection (one virus per subunit)
T2 sequence (P54646 whole entry): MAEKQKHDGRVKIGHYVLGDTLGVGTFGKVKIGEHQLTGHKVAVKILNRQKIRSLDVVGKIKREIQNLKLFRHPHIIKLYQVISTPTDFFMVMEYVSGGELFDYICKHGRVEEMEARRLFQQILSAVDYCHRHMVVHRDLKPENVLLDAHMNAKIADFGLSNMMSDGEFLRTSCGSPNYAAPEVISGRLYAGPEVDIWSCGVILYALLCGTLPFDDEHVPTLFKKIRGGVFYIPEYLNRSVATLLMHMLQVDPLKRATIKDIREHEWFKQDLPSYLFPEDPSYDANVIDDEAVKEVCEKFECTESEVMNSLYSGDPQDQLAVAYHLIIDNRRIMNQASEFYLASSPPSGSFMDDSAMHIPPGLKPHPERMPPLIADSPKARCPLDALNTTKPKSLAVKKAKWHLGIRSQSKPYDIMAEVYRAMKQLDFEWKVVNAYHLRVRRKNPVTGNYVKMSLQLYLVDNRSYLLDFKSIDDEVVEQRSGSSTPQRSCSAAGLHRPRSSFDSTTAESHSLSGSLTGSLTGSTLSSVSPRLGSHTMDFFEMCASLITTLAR
T2 sequence (Q9Y478 whole entry): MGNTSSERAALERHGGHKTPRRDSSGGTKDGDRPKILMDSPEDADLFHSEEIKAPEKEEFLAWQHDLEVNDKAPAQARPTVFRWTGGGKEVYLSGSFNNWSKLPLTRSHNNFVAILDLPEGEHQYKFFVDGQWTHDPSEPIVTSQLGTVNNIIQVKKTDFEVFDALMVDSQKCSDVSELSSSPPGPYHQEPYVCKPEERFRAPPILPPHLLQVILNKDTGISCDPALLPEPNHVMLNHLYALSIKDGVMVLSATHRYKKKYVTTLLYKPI
T2 sequence (P54619 whole entry partner): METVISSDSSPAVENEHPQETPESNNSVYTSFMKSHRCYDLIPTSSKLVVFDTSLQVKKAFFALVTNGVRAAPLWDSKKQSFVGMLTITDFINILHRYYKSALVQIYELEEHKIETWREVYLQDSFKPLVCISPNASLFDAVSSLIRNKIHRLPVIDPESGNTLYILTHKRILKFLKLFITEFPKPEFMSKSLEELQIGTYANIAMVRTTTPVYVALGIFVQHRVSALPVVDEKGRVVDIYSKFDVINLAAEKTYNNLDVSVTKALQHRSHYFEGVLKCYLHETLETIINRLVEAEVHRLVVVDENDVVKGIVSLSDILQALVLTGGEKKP
Nature of the test: In vitro AMPK activation assay (AMPKSAMSF), complex 7. Conditions: recombinant human AMPK complex 7 (α2β1γ1); for Emax: 10-point titration expressed as % maximum AMP activation; for EC50: inflection point reflecting 50% of the maximum activation. The test is classed as biochemical. On the procedure:
as §1, §2

T1 sequence (Q13131 whole entry): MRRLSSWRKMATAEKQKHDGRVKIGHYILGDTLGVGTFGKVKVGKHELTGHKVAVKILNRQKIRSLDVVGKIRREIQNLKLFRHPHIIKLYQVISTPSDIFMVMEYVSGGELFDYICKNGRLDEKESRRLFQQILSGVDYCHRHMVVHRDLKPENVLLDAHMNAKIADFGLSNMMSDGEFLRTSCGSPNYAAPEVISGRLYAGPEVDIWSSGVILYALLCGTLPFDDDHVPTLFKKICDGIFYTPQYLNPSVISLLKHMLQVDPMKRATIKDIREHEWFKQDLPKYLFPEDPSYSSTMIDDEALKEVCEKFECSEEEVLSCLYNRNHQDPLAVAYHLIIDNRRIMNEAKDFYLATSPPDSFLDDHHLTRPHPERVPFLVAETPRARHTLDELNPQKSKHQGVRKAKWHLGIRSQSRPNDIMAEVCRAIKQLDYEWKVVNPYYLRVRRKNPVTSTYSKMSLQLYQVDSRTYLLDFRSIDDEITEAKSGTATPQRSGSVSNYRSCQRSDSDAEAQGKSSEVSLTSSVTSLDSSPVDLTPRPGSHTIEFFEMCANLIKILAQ
T1 sequence (Q9Y478 whole entry): as the sequence (Q9Y478 whole entry) above
T1 sequence (P54619 whole entry partner): as the sequence (P54619 whole entry partner) above

As to `NC(=O)c1ncn([C@@H]2O[C@H](CO)[C@@H](O)[C@H]2O)c1N` [AICAR], the blood glucose reduction in test [1] was 35%.
Consider `O[C@@H]1CO[C@H]2[C@@H]1OC[C@H]2Oc1nc2c(F)c(-c3ccc(-c4ccccc4)cc3)c(F)cc2[nH]1` [Example 1, (3R,3aR,6R,6aR)-6-((5-([1,1′-biphenyl]-4-yl)-4,6-difluoro-1H-benzo[d]imidazol-2-yl)oxy)hexahydrofuro[3,2-b]furan-3-ol], for which, in test [2], the “% Maximum AMP Activation of human AMPK Complex 1” value (“% Maximum AMP Activation” below) is 636% and the EC50 is 51 nM.
In the case of `CS(=O)(=O)c1ccc(-c2ccc(-c3cc4nc(O[C@@H]5CO[C@H]6[C@@H]5OC[C@H]6O)[nH]c4cc3Cl)cc2)cc1` [Example 6], in test [2], the “% Maximum AMP Activation” value was 367% and the EC50 came out at 14 nM.
For the compound `O[C@@H]1CO[C@H]2[C@@H]1OC[C@H]2Oc1nc2cc(-c3ccc(-c4ccccc4)cc3)c(Cl)cc2[nH]1` [Example 8], in test [2], the “% Maximum AMP Activation” value amounted to 368% and the EC50 amounted to 32 nM.
As to `CC(C)(O)c1ccc(-c2ccc(-c3c(F)cc4[nH]c(O[C@@H]5CO[C@H]6[C@@H]5OC[C@H]6O)nc4c3F)cc2)cc1` [Example 15], in test [2], the “% Maximum AMP Activation” value turned out to be 416% and the EC50 amounted to 18 nM.
The corresponding values for `OCc1ccc(-c2ccc(-c3c(F)cc4[nH]c(O[C@H]5COC6C5OC[C@@H]6O)nc4c3F)cc2)cc1` (stereo partly drawn) [Example 18, (3S,6S)-6-((4,6-difluoro-5-(4′-(hydroxymethyl)-[1,1′-biphenyl]-4-yl)-1H-benzo[d]imidazol-2-yl)oxy)hexahydrofuro[3,2-b]furan-3-ol] are 314% and 6 nM.
As to `O=C(c1ccc(-c2ccc(-c3c(F)cc4[nH]c(O[C@H]5COC6C5OC[C@@H]6O)nc4c3F)cc2)cc1)N1CC[C@@H](O)C1` (stereo partly drawn) [Example 19, (4′-(4,6-difluoro-2-(((3S,6S)-6-hydroxyhexahydrofuro[3,2-b]furan-3-yl)oxy)-1H-benzo[d]imidazol-5-yl)-[1,1′-biphenyl]-4-yl)((R)-3-hydroxypyrrolidin-1-yl)methanone], in test [2], the “% Maximum AMP Activation” value is 232% and the EC50 came out at 35 nM.
Consider `O=C(O)C1CC1c1ccc(-c2ccc(-c3c(F)cc4[nH]c(O[C@@H]5CO[C@H]6[C@@H]5OC[C@H]6O)nc4c3F)cc2)cc1` (stereo partly drawn) [Example 26], for which, in test [3], the Emax turned out to be 350% and the EC50 is 5 nM.
The corresponding values for `CC(CO)(CO)c1ccc(-c2ccc(-c3c(F)cc4[nH]c(O[C@@H]5CO[C@H]6[C@@H]5OC[C@H]6O)nc4c3F)cc2)cc1` [Example 33] are 316% and 5 nM.
The corresponding values for `O[C@@H]1CO[C@H]2[C@@H]1OC[C@H]2Oc1nc2c(F)c(-c3ccc(-c4ccc(C5CNCCO5)cc4)cc3)c(F)cc2[nH]1` (stereo partly drawn) [Example 34] are 263% and 5 nM.
Turning to `O=C1NCCC1c1ccc(-c2ccc(-c3c(F)cc4[nH]c(O[C@@H]5CO[C@H]6[C@@H]5OC[C@H]6O)nc4c3F)cc2)cc1` (stereo partly drawn) [Example 40], in test [3], the Emax came out at 364% and the EC50 is 5 nM.
For `Oc1ccnc(-c2ccc(-c3ccc(-c4c(F)cc5[nH]c(O[C@@H]6CO[C@H]7[C@@H]6OC[C@H]7O)nc5c4F)cc3)cc2)n1` [Example 41], in test [3], the Emax was 380% and the EC50 was 3 nM.
Take `O[C@@H]1CO[C@H]2[C@@H]1OC[C@H]2Oc1nc2c(F)c(-c3ccc(-c4ccc(-n5ccnn5)cc4)cc3)c(F)cc2[nH]1` [Example 43]: in test [3], the maximal effect (Emax) was 341% and the EC50 was determined as 3 nM.
Regarding `CNC(=O)c1ccc(-c2ccc(-c3c(F)cc4[nH]c(O[C@@H]5CO[C@H]6[C@@H]5OC[C@H]6O)nc4c3F)cc2)cc1` [Example 46], in test [3], the Emax is 364% and the EC50 turned out to be 2 nM.
The corresponding values for `N=c1nc(N)[nH]n1-c1ccc(-c2ccc(-c3c(F)cc4[nH]c(O[C@@H]5CO[C@H]6[C@@H]5OC[C@H]6O)nc4c3F)cc2)cc1` [Example 47] are 348% and 4 nM.
For `O=C(O)C1CC1c1ccc(-c2ccc(-c3cc4nc(O[C@@H]5CO[C@H]6[C@@H]5OC[C@H]6O)[nH]c4cc3Cl)cc2)cc1` (stereo partly drawn) [Example 57], in test [3], the Emax was determined as 356% and the EC50 turned out to be 8 nM.
The corresponding values for `O[C@@H]1CO[C@H]2[C@@H]1OC[C@H]2Oc1nc2cc(-c3ccc(-c4ccc(C5CNCCO5)cc4)cc3)c(Cl)cc2[nH]1` (stereo partly drawn) [Example 67] are 324% and 4 nM.
The corresponding values for `Oc1ccnc(-c2ccc(-c3ccc(-c4cc5nc(O[C@@H]6CO[C@H]7[C@@H]6OC[C@H]7O)[nH]c5cc4Cl)cc3)cc2)n1` [Example 68] are 344% and 3 nM.
The corresponding values for `O=c1ncn(-c2ccc(-c3ccc(-c4cc5nc(O[C@@H]6CO[C@H]7[C@@H]6OC[C@H]7O)[nH]c5cc4Cl)cc3)cc2)[nH]1` [Example 69] are 359% and 2 nM.
Turning to `CC(CO)(CO)c1ccc(-c2ccc(-c3cc4nc(O[C@@H]5CO[C@H]6[C@@H]5OC[C@H]6O)[nH]c4cc3Cl)cc2)cc1` [Example 71], in test [3], the Emax worked out at 352% and the EC50 was 5 nM.
`O[C@@H]1CO[C@H]2[C@@H]1OC[C@H]2Oc1nc2cc(-c3ccc(-c4ccc(-n5ccnn5)cc4)cc3)c(Cl)cc2[nH]1` [Example 73]: in test [3], the Emax was 384% and the EC50 was determined as 7 nM.
`O[C@@H]1CO[C@H]2[C@@H]1OC[C@H]2Oc1nc2cc(-c3ccc(-c4ccc(-n5cccn5)cc4)cc3)c(Cl)cc2[nH]1` [Example 74]: in test [3], the Emax is 369% and the EC50 stood at 16 nM.
The corresponding values for `CNC(=O)c1ccc(-c2ccc(-c3cc4nc(O[C@@H]5CO[C@H]6[C@@H]5OC[C@H]6O)[nH]c4cc3Cl)cc2)cc1` [Example 76] are 386% and 5 nM.
The corresponding values for `N=c1nc(N)[nH]n1-c1ccc(-c2ccc(-c3cc4nc(O[C@@H]5CO[C@H]6[C@@H]5OC[C@H]6O)[nH]c4cc3Cl)cc2)cc1` [Example 77] are 368% and 8 nM.
With `O=S(=O)(c1ccc(-c2ccc(-c3cc4nc(O[C@@H]5CO[C@H]6[C@@H]5OC[C@H]6O)[nH]c4cc3Cl)cc2)cc1)C1CCNCC1` [Example 79], in test [3], the Emax worked out at 381% and the 50% effective concentration (EC50) was 9 nM.
Regarding `O=C1NCCC1c1ccc(-c2ccc(-c3cc4nc(O[C@@H]5CO[C@H]6[C@@H]5OC[C@H]6O)[nH]c4cc3Cl)cc2)cc1` (stereo partly drawn) [Example 83], in test [3], the Emax was found to be 365% and the EC50 was 5 nM.
